According to US8377455B2, “Biosurfactant composition produced by a new Bacillus licheniforms strain, uses and products thereof” (priority 2008, dated 2013):
Read-outs that look alike come from different tables or passages of the source.

Experiments:
[1] = system: planktonic E. coli CFT073; assay: Susceptibility of planktonic cultures to antibiotics with or without V9T14 (MIC by OD650, MBC by viable cell count); type: cell-based, Escherichia coli; conditions: for change of MBC99.99% by V9T14 / effect of V9T14 on planktonic killing: 5 μg/mL V9T14; for MIC / MBC: Escherichia coli; for MBC: read-out: MBC99.99%, Ab; for concentration at which complete eradication of planktonic cells was observed: antibiotic plus 5 μg/mL V9T14; for MBC99.99%, AbBs: antibiotic plus 5 μg/mL V9T14 biosurfactant; for increase of planktonic killing by V9T14: at 2 μg/mL antibiotic
Protocol: (§1) Antibiotics were serially diluted (log2) using 0.9% saline in a 96-well microtiter plate, and then a solution of biosurfactant was added to each well to reach a final concentration of 5 μg/mL.
(§2) E. coli CFT073 biofilms were grown on the CBD at 37° C. for 24 h in a rotatory shaker at 130 rpm, as described above. Then CBD lid was rinsed twice with 0.9% saline, exposed to the antibiotics and antibiotic plus biosurfactant microtiter plate and incubated at 37° C., 125 rpm for 24 h. After exposure, the CBD was removed and the 96-well microtiter plate was used to estimate minimal inhibitory concentration (MIC) and minimal bactericidal concentration (MBC99.99%) values. For MIC value, the plate was read using a spectrophotometer at 650 nm, MIC was defined as the lowest concentration not presenting turbidity; according to the guidelines of the American Clinical Laboratory Standards Institute, the minimum bactericidal concentration (MBC) is conventionally defined as a concentration of an antimicrobial agent that kills 3 log10 cells of a bacterial culture (or 99.9% of the bacteria). In our experiments we used a more restrictive criterion, defining the MBC99.99% value, defined as the lowest concentration of the antibiotic activity higher than 4 log10 by viable cell count. Minimal biofilm eradication concentration (MBEC99.9%) was defined as the lowest concentration to eradicate 3 log10 of the viable microorganisms in a biofilm.
(§3) The difference attributed to synergy is expressed in Δ values between the log10 antibiotic cell count reduction and the log10 association value. “Eradication” was defined as no growth in antibiotic-free plates after planktonic culture initially incubated in antibiotic-containing LB broth.

E. coli CFT073 biofilm = assay: Susceptibility of 24 h biofilm on CBD to antibiotics with or without V9T14 (MBEC, viable cell count, CLSM); type: cell-based, Escherichia coli; conditions: for MBEC99.9%, Ab: 3 log10 reduction; for MBEC99.9%, AbBs: antibiotic plus 5 μg/mL V9T14 biosurfactant
Protocol: as §1, §2
Pegs were broken from the lid of the CBD using pliers (Harrison et al. 2006) and then rinsed once with 0.9% saline to remove planktonic forms. Prior to examination by CLSM, biofilms were fluorescently stained with acridine orange (AO) (Sigma Chemical Co., St. Louis, Mo., USA). To stain biofilms, pegs were immersed in 0.1% w/v AO in PBS for 5 min at room temperature in the dark. To determine live and dead cell distribution in antibiotic experiments, rinsed biofilms were stained with Syto-9 (6.7 μM) and propidium iodide (40 μM) (Live/Dead® BacLight™ Kit, Molecular Probes, Burlington, ON, Canada) at 30° C. for 30 min. Fluorescently stained biofilms were placed in two drops of 0.9% saline on the surface of a glass coverslip. These pegs were examined using a Leica DM IRE2 spectral confocal and multiphoton microscope with a Leica TCS SP2 acoustic optical beam splitter (AOBS) (Leica Microsystems, Richmond Hill, ON, Canada). To minimize or eliminate artefacts associated with single and/or simultaneous dual wavelength excitation, all dual labelled samples were sequentially scanned, frame-by frame, first at 476 or 488 nm and then at 543 nm. Fluorescence emission Δ was then sequentially collected in the green and red regions of the spectrum, respectively. Line averaging (×2) was used to capture images with reduced noise. A 63× water immersion objective was used in all imaging experiments. Image capture and two dimensional projections of z-stacks were performed using Leica Confocal Software (LCS, Leica Microsystems).
as §3

[2] = 24 h, antibiotic alone, 24 h, OD650, read-out: MIC, Ab
[3] = antibiotic without V9T14 (figure legend), read-out: MIC value used in FIG. 21
[4] = antibiotic alone, 24 h, 4 log10 reduction

| Structure (SMILES) | change of MBC99.99% by V9T14 [1] | MIC [1, 2] | MIC [1, 3] | MBC [1, 4] | concentration at which complete eradication of planktonic cells was observed [1] | MBC99.99%, AbBs ([1]; 24 h) | biofilm reduction (E. coli CFT073 biofilm; antibiotic alone at 4 μg/mL) | MBEC99.9%, Ab (E. coli CFT073 biofilm; antibiotic alone, 24 h) | MBEC99.9%, AbBs (E. coli CFT073 biofilm; 24 h) | planktonic population reduction ([1]; antibiotic alone at 1 μg/mL) | MIC, Ab ([1]; antibiotic alone, 24 h, OD650) | increase of planktonic killing by V9T14 [1] | effect of V9T14 on planktonic killing [1] | change of MBEC99.9% by V9T14 (E. coli CFT073 biofilm; 5 μg/mL V9T14) | other results |
| --- | --- | --- | --- | --- | --- | --- | --- | --- | --- | --- | --- | --- | --- | --- | --- |
| CC1(C)S[C@@H]2[C@H](NC(=O)[C@H](N)c3ccccc3)C(=O)N2[C@H]1C(=O)O [Ampicillin, ampicillin] | not modified | 2 to 4 µg/mL | 2 µg/mL | 1 to 2 µg/mL | 8 µg/mL | 1 to 2 µg/mL | 3 log10 | 4 µg/mL | 0.5 to 1 µg/mL |  |  |  |  |  | surviving planktonic population ([1]; antibiotic alone up to 16 μg/mL): 10^2 cfu/mL; increase of planktonic killing efficacy by V9T14 ([1]; concentration not given): 2 log10; surviving biofilm population (E. coli CFT073 biofilm; 1 μg/mL antibiotic plus V9T14): 10^1 cfu/peg; biofilm subpopulation remaining viable (E. coli CFT073 biofilm; antibiotic alone, 24 h): 10^3 cfu/peg; concentration at which sessile forms were eradicated (E. coli CFT073 biofilm; antibiotic plus V9T14): 8 µg/mL; effect on adherent biofilm cells (E. coli CFT073 biofilm; association of V9T14 with the antibiotic): complete eradication; enhancement of antibiotic effect on biofilm by V9T14 (E. coli CFT073 biofilm; at 1 μg/mL antibiotic): 4 log10 |
| CO/N=C(\C(=O)N[C@@H]1C(=O)N2C(C(=O)O)=C(CSc3nc(=O)c(O)nn3C)CS[C@H]12)c1csc(N)n1 [Cefriaxone, ceftriaxone] | not modified |  |  |  | 2 µg/mL | 0.5 to 1 µg/mL |  | 1 to 2 µg/mL | 0.5 to 1 µg/mL | 7 log10 | 1 to 2 µg/mL | 1.7 log10 |  |  | planktonic population reduction ([1]; antibiotic alone at 0.5 μg/mL): 3 log10; MBC99.99%, Ab [1, 4]: 0.5 to 1 µg/mL; MIC value used in FIG. 21 ([1]; antibiotic without V9T14 (figure legend)): 1 µg/mL; final enhancement of biofilm removal by V9T14 (E. coli CFT073 biofilm; 2 μg/mL antibiotic): 1.2 log10; enhancement of biofilm removal by V9T14 (E. coli CFT073 biofilm; 0.25-0.5 μg/mL antibiotic): 0.6 log10; biofilm reduction (E. coli CFT073 biofilm; antibiotic alone at 1 μg/mL): 3 log10; further increase of biofilm removal by V9T14 (E. coli CFT073 biofilm; for 2 μg/mL antibiotic, on top of the 0.25-0.5 μg/mL increase): 0.6 log10 |
| NC[C@H]1O[C@H](O[C@H]2[C@H](O)[C@@H](O[C@H]3O[C@H](CO)[C@@H](O)[C@H](N)[C@H]3O)[C@H](N)C[C@@H]2N)[C@H](N)C[C@@H]1O [Tobramycin, tobramycin] | not modified | 16 to 32 µg/mL | 16 µg/mL | 8 to 16 µg/mL |  | 8 to 16 µg/mL |  | 2 to 4 µg/mL | 2 to 4 µg/mL |  |  |  | no increase of activity | not modified | planktonic growth, OD650 ([1]; 4 μg/mL antibiotic alone): 0.31; planktonic growth, OD650 ([1]; 4 μg/mL antibiotic plus 5 μg/mL V9T14): 0.18; concentration giving complete eradication of planktonic population ([1]; antibiotic alone): 16 µg/mL; planktonic population reduction ([1]; antibiotic alone up to 8 μg/mL): 1 log10; increased efficacy against sessile forms by V9T14 (E. coli CFT073 biofilm; 16 μg/mL antibiotic): 1 log10; effect on mature biofilm by CLSM (Live/Dead) (E. coli CFT073 biofilm; 16 μg/mL antibiotic alone): significant killing of biofilm population; mature biofilm reduction by CLSM (Live/Dead) (E. coli CFT073 biofilm; 16 μg/mL antibiotic plus 5 μg/mL V9T14): further increased; biofilm survival subpopulation (E. coli CFT073 biofilm; antibiotic alone at 8-16 μg/mL): about 10^2 cfu/mL; biofilm decrease (E. coli CFT073 biofilm; antibiotic alone, stabilizing at 8-16 μg/mL): 4 log10 |
| O=C(O)c1cn(C2CC2)c2cc(N3CCNCC3)c(F)cc2c1=O [Ciprofloxacin, ciprofloxacin] | not modified | 8 to 16 µg/mL |  | 0.25 to 0.5 µg/mL |  | 0.25 to 0.5 µg/mL |  |  |  | 6.8 log10 |  | 1.4 log10 |  |  |  |
| CCN1CCN(C(=O)N[C@@H](C(=O)N[C@@H]2C(=O)N3[C@@H]2SC(C)(C)[C@@H]3C(=O)O)c2ccccc2)C(=O)C1=O [Piperacillin, piperacillin] | not affected | > 32 µg/mL | 32 µg/mL | > 32 µg/mL |  | >32 µg/mL | 1 log10 | >32 µg/mL | >32 µg/mL |  |  |  | no improvement | not affected | planktonic population reduction ([1]; antibiotic alone at 4 μg/mL): 2.7 log10; effect of V9T14 on biofilm killing (E. coli CFT073 biofilm; 5 μg/mL V9T14): no improvement; synergy with V9T14 (criterion ≧1 log10 decrease) (E. coli CFT073 biofilm; 24 h exposure): not able to satisfy our discrimination criterion for synergy identification |
| Cc1nnc(SCC2=C(C(=O)O)N3C(=O)[C@@H](NC(=O)Cn4cnnn4)[C@H]3SC2)s1 [Cefazolin, cefazolin] |  |  | 8 µg/mL | 16 µg/mL | 32 µg/mL | 8 µg/mL |  |  | 8 µg/mL |  | 1 to 2 µg/mL |  |  |  | maximum planktonic killing effect ([1]; 32 μg/mL antibiotic plus V9T14): 8.4 log10; MIC ([1]; 24 h, antibiotic plus 5 μg/mL V9T14, 24 h, OD650, read-out: MIC with V9T14): 8 µg/mL; planktonic killing ([1]; antibiotic alone at 16 μg/mL): more than 4 log10 cfu/mL; maximum planktonic killing effect ([1]; antibiotic alone at 32 μg/mL): 6.9 log10; MIC, Ab ([1]; antibiotic alone, 24 h, OD650, listed as cefazolin): 16 µg/mL; biofilm reduction (E. coli CFT073 biofilm; antibiotic alone, up to highest concentration tested): about 2.2 log10 |
